Like-named read-outs stand apart in the source and are kept apart here.
Legend:
[1] = tested on: T. brucei brucei AnTat 1.9; experiment: In vitro antitrypanosomal activity, Alamar Blue assay; format: cell-based, Trypanosoma brucei brucei; settings: Trypanosoma brucei, slender bloodstream trypomastigotes, AnTat 1.9 strain; mean +/- SD of three independent experiments; read-out: Trypanosoma brucei brucei IC50 Values Trypanos Antat 1.9
In short: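 Bloodstream T. brucei brucei AnTat 1.9 cultured in supplemented MEM with Earle's salts and exposed to compounds in duplicate for 69 h at 37 °C. Alamar Blue then added for 5 h, with fluorescence read at ex 530/em 590 nm.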

[2] = Cytotoxicity evaluation, MTT assay; format: cell-based, human; settings: human
Experimental: These cells are a commonly used human hepatocarcinoma-derived cell line that has characteristics similar to those of primary hepatocytes. These cells express many hepatocyte-specific metabolic enzymes, thus enabling the cytotoxicity of tested product metabolites to be evaluated. […] Duplicate assays were performed for each sample. Each well was microscopically examined for precipitate formation before the medium was aspirated from the wells. After aspiration, 100 µL of MTT solution (0.5 mg/mL in medium without FCS) were then added to each well. […] The MTT solution was removed, and DMSO (100 µL) was added to dissolve the resulting blue formazan crystals. Plates were shaken vigorously (300 rpm) for 5 min. The absorbance was measured at 570 nm with 630 nm as reference wavelength in a BIO-TEK ELx808 Absorbance Microplate Reader. DMSO was used as blank and doxorubicin (Sigma Aldrich) as positive control. Cell viability was calculated as percentage of control (cells incubated without compound). The CC50 was determined from the dose-response curve using TableCurve 2D V5.0 software (Systat Software, Palo Alto, CA, USA).

[3] = tested on: Plasmodium telomeric sequence FPf8T G-quadruplex; experiment: FRET melting assay, FPf8T; format: binding, Plasmodium falciparum; settings: compound 2 μM, oligonucleotide 0.2 μM, K+ conditions
Experimental: (§1) These were performed with dual-labeled oligonucleotides mimicking the Plasmodium telomeric sequences FPf1T [FAM-5′(GGGTTTA)3-GGG3′-TAMRA] and FPf8T [FAM-5′(GGGTTCA)3GGG3′-TAMRA], the Trypanosoma 9 and 11 chromosomic sequence FTrypBT (also named FEBR1T) [FAM-5′[…]3′-TAMRA], the human telomeric sequence F21T [FAM-(GGGTTA)3-GGG3′-TAMRA] and the human duplex sequence FdxT [FAM5′-[…]-hexaethyleneglycol-[…]3′-TAMRA] [27, 31, 47]. The oligonucleotides were pre-folded in 10 mM lithium cacodylate buffer (pH 7.2), with 10 mM KCl and 90 mM LiCl (K^+ condition). The FAM emissions were recorded at 516 nm using a 492-nm excitation wavelength in the absence and presence of a single compound as a function of temperature (25 to 95 °C) in 96-well microplates using a Stratagene MX3000P real-time PCR device at a rate of 1 °C∙min-1. Data were normalized between 0 and 1, and the required temperature for half-denaturation of oligonucleotides corresponding to the emission value of 0.5 was taken as the Tm. Each experiment was performed in duplicate with 0.2 µM of labeled oligonucleotide and 2 µM of compound under K^+ condition. For each compound, three independent experiments were carried out.

[4] = tested on: Trypanosoma 9 and 11 chromosomic sequence FTrypBT (FEBR1T) G-quadruplex; experiment: FRET melting assay, FtrypBT; format: binding, Trypanosoma brucei brucei; settings: compound 2 μM, oligonucleotide 0.2 μM, K+ conditions
In short: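 Dual-labelled FAM/TAMRA oligonucleotides (0.2 µM) pre-folded in 10 mM lithium cacodylate pH 7.2, 10 mM KCl, 90 mM LiCl, with 2 µM compound. FAM emission (ex 492/em 516 nm) followed from 25 to 95 °C at 1 °C/min; Tm is the temperature at normalized emission 0.5, compared with and without compound.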

[5] = tested on: human duplex sequence FdxT; experiment: FRET melting assay, duplex control FdxT; format: binding; settings: compound 2 μM, oligonucleotide 0.2 μM, K+ conditions
Experimental: as §1

[6] = molecular target: G4-forming oligonucleotide Pf1 (d[(G3T3A)3G3]); experiment: Native electrospray mass spectrometry, Pf1; format: binding, Plasmodium; design: key to Kd Pf1, stoichiometry 1 (Kd1) / Kd Pf1, stoichiometry 2 (Kd2): n.b.: no binding detected; <LOQ: binding detected but below limit of quantitation; settings: 100 mM TMAA, 1 mM KCl
Experimental: (§2) Oligonucleotides were purchased in the lyophilized form from Eurogentec (RP-cartridge purification), and dissolved at 1 mM in pure water. TMAA (1 M) was purchased from Santa Cruz Biotechnology and potassium chloride (purity > 99.99%) from Sigma Aldrich (Sigma Aldrich, Saint-Quentin-Fallavier, France). The sample solutions contained 10 µM oligonucleotide and 10 (for CD only) or 20 µM ligand, in a 100 mM TMAA, 1mM KCl buffer. The solutions were incubated overnight at 4 °C before analysis.
(§3) The sample solutions were injected at a 10 µM strand concentration on an Agilent 6560 DTIMS-Q-TOF instrument (Agilent Technologies, Santa Clara, CA, USA), equipped with a dual-ESI source operated in the negative ion mode in soft conditions. The following parameters were used: fragmentor 320 V, trap fill time 1000 µs, trap release time 200 µs, trap entrance grid delta 2 V. The drift tube was filled with helium and the pressure was fixed at 3.89 ± 0.01 Torr (measured by a capacitance diaphragm gauge CDG-500, Agilent Technologies).
(§4) The MS data were extracted using the IM-MS Browser (v. B.08.00; Agilent Technologies). The peak area intensity of each species at the 5- charge state was extracted from their corresponding m/z range (encompassing potassium adducts), and baseline subtracted. The concentrations of all species (free DNA, free ligands, and complexes) and corresponding dissociation constants were determined as previously described.

[7] = molecular target: G4-forming oligonucleotide Pf8 (d[(G3T2CA)3G3]); experiment: Native electrospray mass spectrometry, Pf8; format: binding, Plasmodium; settings: 100 mM TMAA, 1 mM KCl
Experimental: as §2, §3, §4

[8] = molecular target: human telomeric sequence 24TTG; experiment: Native electrospray mass spectrometry, 24TTG; format: binding; design: key to Kd 24TTG, stoichiometry 1 (Kd1): n.b.: no binding detected; <LOQ: binding detected but below limit of quantitation; settings: 100 mM TMAA, 1 mM KCl
Experimental: as §2, §3, §4

[9] = 1:1 ligand:DNA complex, read-out: Kd Pf1, stoichiometry 1 (Kd1)
[10] = 2:1 ligand:DNA complex, read-out: Kd Pf1, stoichiometry 2 (Kd2)
[11] = 1:1 ligand:DNA complex, read-out: Kd Pf8, stoichiometry 1 (Kd1)
[12] = 2:1 ligand:DNA complex, read-out: Kd Pf8, stoichiometry 2 (Kd2)
[13] = 1:1 ligand:DNA complex, read-out: Kd 24TTG, stoichiometry 1 (Kd1)
[14] = 2:1 ligand:DNA complex, read-out: Kd 24TTG, stoichiometry 2 (Kd2)

## c1ccc(-c2cc(CNCCCN3CCCC3)nc3c2ccc2c(-c4ccccc4)cc(CNCCCN4CCCC4)nc23)cc1 [Compound 1l]
[1]
  IC50: 1.13 ± 0.06 µM
[2]
  CC50 at 72 h: 15.2 ± 1.56 µM
[3]
  ΔTm FPf8T: 14.2 °C
[4]
  ΔTm FtrypBT: 11.6 °C
[5]
  ΔTm FdxT: 0.7 °C
[6]; [9]
  Kd: 10 µM
[6]; [10]
  Kd: 37 µM
[7]; [11]
  Kd: 2 µM
[7]; [12]
  Kd: 59 µM
[8]; [13]
  Kd: 34 µM
[8]; [14]
  Kd: 18 µM

## CN(C)CCCCNCc1cc(-c2ccccc2)c2ccc3c(-c4ccccc4)cc(CNCCCCN(C)C)nc3c2n1 [Compound 1c, 2,9-Bis[(4-dimethylaminobutyl)aminomethyl]-4,7-diphenyl-1,10-phenanthroline]
[1]
  IC50: 0.86 ± 0.16 µM
[2]
  CC50 at 72 h: 10.4 ± 0.7 µM
[3]
  ΔTm FPf8T: 10.2 °C
[4]
  ΔTm FtrypBT: 10.6 °C
[5]
  ΔTm FdxT: −0.5 °C
[6]; [9]
  Kd: 23 µM
[6]; 2:1 ligand:DNA complex
  Kd Pf1, stoichiometry 2 (Kd2): n.b.
[7]; [11]
  Kd: 3 µM
[7]; [12]
  Kd: 50 µM
[8]; [13]
  Kd: 44 µM
[8]; [14]
  Kd: 28 µM

## CN(C)CCCCCNCc1cc(-c2ccccc2)c2ccc3c(-c4ccccc4)cc(CNCCCCCN(C)C)nc3c2n1 [Compound 1d, 2,9-Bis[(5-dimethylaminopentyl)aminomethyl]-4,7-diphenyl-1,10-phenanthroline]
[1]
  IC50: 1.42 ± 0.1 µM
[2]
  CC50 at 72 h: 3.35 ± 0.33 µM
[3]
  ΔTm FPf8T: 20.5 °C
[4]
  ΔTm FtrypBT: 14.7 °C
[5]
  ΔTm FdxT: 1.8 °C
[6]; [9]
  Kd: 8 µM
[6]; [10]
  Kd: 24 µM
[7]; [11]
  Kd: 3 µM
[7]; [12]
  Kd: 16 µM
[8]; [13]
  Kd: 38 µM
[8]; [14]
  Kd: 62 µM

## c1ccc(-c2cc(CNCCc3ccccn3)nc3c2ccc2c(-c4ccccc4)cc(CNCCc4ccccn4)nc23)cc1 [Compound 1m]
[2]
  CC50 at 72 h: 4.34 ± 0.31 µM
[3]
  ΔTm FPf8T: 1.0 °C
[4]
  ΔTm FtrypBT: 1.8 °C
[5]
  ΔTm FdxT: −0.2 °C
[6]; 1:1 ligand:DNA complex
  Kd Pf1, stoichiometry 1 (Kd1): n.b.
[7]; 1:1 ligand:DNA complex
  Kd Pf8, stoichiometry 1 (Kd1): very weakly bound
[7]; [11]
  Kd: 83 µM
[8]; 1:1 ligand:DNA complex
  Kd 24TTG, stoichiometry 1 (Kd1): n.b.
